# From patent publication US10870647B2, “Imidazopyridine derivative, method for preparing same, and pharmaceutical composition containing same as active ingredient for preventing or treating cancer” (DAEGU-GYEONGBUK MEDICAL INNOVATION FOUNDATION, priority 2016, dated 2020)
# Legend:
# Assay in all cases: Kinase selectivity, scanMAX Kinase assay panel (DiscoverX), % control at 1 uM
# Assay type in all cases: binding
# [1] = target: T1, scanMAX Kinase assay panel (Homo sapiens, UniProt P14616); details: INSRR; 1 uM; read-out: Percent Control (%)
# T1 construct: purchased DiscoverX
# In short: (§1)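 Each kinase was first exposed to the test compound at 1 uM in DMSO. Signal was then normalised to positive and negative controls to give % control. Finally, any enzyme showing <35% control was judged inhibited.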
# [2] = target: T2, scanMAX Kinase assay panel (Homo sapiens, UniProt P21802); details: FGFR2; 1 uM; read-out: Percent Control (%)
# T2 construct: purchased DiscoverX
# In short: as §1
# [3] = target: T3, scanMAX Kinase assay panel (Homo sapiens, UniProt P51956); details: NEK3; 1 uM; read-out: Percent Control (%)
# T3 construct: purchased DiscoverX
# T3 sequence (P51956 1-506): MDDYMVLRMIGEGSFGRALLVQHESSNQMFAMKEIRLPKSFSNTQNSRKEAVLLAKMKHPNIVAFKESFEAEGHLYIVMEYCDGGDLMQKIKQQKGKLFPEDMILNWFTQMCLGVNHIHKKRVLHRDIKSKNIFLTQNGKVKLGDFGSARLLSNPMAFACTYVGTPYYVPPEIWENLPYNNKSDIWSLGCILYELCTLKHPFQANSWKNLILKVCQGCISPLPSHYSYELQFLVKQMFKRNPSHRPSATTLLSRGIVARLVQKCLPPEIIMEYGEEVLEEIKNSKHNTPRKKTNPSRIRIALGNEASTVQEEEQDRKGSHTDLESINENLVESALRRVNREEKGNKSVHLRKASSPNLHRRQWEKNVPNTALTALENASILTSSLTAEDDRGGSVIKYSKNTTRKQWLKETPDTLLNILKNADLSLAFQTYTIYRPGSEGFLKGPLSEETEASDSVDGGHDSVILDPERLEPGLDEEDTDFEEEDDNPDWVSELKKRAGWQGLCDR
# In short: as §1
# [4] = target: T4, scanMAX Kinase assay panel (Homo sapiens, UniProt Q12851); details: MAP4K2; 1 uM; read-out: Percent Control (%)
# T4 construct: purchased DiscoverX
# T4 sequence (Q12851 1-820): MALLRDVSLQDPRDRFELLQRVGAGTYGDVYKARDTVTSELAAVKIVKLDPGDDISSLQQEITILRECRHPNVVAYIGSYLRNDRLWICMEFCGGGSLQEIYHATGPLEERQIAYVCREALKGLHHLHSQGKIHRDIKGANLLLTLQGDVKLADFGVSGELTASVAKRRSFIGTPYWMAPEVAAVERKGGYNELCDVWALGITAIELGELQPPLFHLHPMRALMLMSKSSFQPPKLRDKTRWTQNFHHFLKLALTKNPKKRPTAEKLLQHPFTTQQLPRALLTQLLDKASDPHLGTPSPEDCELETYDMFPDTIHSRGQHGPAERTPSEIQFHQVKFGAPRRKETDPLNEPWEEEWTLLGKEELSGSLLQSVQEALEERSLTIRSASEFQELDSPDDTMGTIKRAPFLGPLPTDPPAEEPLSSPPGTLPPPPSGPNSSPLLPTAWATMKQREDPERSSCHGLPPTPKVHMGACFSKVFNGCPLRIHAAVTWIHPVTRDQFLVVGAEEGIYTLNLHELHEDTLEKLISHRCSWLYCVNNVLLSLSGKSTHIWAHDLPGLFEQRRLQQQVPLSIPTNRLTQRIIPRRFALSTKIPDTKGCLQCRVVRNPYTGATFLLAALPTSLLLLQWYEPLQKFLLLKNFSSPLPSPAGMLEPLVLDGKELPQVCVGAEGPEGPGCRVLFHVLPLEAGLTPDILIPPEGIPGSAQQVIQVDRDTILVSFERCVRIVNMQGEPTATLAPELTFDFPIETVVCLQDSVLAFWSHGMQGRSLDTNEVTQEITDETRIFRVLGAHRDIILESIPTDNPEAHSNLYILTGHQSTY
# In short: as §1
# [5] = target: T5, scanMAX Kinase assay panel (Homo sapiens, UniProt Q13523); details: PRP4; 1 uM; read-out: Percent Control (%)
# T5 construct: purchased DiscoverX
# In short: as §1
# [6] = target: T6, scanMAX Kinase assay panel (Homo sapiens, UniProt Q9UPZ9); details: ICK; 1 uM; read-out: Percent Control (%)
# T6 construct: purchased DiscoverX
# T6 sequence (Q9UPZ9 1-632): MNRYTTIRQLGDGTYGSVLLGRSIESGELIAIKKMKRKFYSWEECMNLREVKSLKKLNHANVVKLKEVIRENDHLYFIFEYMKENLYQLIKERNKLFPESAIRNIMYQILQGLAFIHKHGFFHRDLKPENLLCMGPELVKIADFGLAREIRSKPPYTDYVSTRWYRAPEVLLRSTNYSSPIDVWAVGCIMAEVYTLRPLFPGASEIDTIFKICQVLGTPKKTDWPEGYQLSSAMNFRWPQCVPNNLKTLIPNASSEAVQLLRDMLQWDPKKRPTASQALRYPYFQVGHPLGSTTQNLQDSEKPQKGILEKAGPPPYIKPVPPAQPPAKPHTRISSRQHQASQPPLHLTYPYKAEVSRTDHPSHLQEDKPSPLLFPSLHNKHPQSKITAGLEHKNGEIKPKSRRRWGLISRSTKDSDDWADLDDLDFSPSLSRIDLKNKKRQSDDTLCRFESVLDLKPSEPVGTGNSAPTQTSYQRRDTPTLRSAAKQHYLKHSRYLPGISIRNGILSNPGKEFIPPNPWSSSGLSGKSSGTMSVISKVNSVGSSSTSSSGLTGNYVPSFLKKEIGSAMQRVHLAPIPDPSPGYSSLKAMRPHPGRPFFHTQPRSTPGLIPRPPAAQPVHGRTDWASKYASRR
# In short: as §1
# T1 sequence (P14616 27-1297): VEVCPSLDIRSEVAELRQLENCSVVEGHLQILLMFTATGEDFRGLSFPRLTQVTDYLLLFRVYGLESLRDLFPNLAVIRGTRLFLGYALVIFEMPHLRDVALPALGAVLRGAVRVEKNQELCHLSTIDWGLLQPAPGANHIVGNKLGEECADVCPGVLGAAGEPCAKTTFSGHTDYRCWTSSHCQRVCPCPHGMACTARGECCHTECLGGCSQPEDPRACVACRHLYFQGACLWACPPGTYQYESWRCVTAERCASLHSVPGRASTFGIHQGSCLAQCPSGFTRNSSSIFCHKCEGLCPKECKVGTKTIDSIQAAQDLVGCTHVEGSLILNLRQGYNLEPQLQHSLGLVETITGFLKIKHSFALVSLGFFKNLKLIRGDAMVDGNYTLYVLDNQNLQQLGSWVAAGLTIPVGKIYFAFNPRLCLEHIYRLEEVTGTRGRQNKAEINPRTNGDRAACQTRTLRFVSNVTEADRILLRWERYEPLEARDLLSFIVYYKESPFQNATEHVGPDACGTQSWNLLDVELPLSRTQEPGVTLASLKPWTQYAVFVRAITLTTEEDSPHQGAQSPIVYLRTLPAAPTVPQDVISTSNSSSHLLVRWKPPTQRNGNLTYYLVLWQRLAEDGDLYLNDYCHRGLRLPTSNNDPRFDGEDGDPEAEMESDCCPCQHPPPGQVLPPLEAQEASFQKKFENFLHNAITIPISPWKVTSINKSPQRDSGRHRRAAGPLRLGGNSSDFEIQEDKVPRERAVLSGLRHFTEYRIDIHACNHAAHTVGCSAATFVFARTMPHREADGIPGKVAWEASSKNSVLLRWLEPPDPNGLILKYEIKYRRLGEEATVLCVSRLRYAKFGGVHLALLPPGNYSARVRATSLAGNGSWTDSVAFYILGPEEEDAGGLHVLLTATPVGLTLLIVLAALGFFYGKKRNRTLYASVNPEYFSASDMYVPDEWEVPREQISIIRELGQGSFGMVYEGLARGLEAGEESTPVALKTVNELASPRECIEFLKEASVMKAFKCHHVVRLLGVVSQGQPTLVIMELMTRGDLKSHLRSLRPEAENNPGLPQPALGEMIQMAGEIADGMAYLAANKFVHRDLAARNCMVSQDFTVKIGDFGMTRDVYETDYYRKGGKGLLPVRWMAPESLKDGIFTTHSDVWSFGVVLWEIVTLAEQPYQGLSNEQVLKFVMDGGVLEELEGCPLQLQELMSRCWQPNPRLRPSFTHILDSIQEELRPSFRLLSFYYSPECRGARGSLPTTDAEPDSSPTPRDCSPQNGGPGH
# T2 sequence (P21802 22-821): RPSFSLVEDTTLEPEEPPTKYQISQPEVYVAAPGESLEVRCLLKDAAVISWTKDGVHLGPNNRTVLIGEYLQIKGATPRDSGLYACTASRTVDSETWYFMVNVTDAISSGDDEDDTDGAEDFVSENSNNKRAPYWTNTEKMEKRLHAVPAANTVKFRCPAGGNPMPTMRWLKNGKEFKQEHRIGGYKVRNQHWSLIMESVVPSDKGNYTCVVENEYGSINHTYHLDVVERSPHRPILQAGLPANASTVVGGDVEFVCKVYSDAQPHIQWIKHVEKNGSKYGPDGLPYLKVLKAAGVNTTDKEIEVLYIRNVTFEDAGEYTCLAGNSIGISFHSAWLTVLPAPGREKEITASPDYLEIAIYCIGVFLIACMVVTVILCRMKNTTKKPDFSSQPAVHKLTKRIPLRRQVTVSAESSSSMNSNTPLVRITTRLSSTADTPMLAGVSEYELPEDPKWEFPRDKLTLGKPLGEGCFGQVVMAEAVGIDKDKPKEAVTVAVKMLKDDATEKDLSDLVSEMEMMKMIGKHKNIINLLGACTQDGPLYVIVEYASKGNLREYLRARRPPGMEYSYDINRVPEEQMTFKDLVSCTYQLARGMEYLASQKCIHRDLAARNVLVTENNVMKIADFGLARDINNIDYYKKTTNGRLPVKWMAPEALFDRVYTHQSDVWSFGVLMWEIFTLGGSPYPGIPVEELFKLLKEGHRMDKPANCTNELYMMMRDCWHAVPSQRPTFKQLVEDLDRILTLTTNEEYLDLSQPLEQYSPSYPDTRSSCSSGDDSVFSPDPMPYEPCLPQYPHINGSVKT
# T5 sequence (Q13523 whole entry): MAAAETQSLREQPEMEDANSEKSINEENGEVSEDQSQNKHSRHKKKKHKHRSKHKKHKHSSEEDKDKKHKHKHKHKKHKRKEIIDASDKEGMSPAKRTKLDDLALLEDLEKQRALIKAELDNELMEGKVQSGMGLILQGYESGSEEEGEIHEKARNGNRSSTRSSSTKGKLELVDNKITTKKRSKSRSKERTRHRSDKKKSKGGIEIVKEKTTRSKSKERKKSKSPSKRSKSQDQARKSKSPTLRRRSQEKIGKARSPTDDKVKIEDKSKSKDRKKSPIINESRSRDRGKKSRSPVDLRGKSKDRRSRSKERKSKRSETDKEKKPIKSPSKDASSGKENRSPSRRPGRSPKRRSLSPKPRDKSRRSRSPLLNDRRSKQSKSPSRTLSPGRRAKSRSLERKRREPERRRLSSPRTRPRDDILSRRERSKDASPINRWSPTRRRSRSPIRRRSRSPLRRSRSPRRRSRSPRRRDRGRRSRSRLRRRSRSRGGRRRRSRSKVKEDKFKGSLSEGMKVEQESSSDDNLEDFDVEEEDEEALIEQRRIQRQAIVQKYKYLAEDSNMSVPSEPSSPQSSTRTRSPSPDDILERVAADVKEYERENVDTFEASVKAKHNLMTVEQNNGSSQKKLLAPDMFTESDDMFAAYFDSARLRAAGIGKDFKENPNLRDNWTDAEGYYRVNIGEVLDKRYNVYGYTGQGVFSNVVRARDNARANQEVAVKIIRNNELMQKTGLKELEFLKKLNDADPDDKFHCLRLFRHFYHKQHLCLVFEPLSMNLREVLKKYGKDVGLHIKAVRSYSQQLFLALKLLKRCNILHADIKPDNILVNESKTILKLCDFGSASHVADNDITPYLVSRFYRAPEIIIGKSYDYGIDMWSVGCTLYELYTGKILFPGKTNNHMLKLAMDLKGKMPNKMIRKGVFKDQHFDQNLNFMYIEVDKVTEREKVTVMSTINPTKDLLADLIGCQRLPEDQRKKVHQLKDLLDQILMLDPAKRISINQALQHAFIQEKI
SMILES,remaining binding at 1 µM [1] [%],remaining binding at 1 µM [2] [%],remaining binding at 1 µM [3] [%],remaining binding at 1 µM [4] [%],remaining binding at 1 µM [5] [%],remaining binding at 1 µM [6] [%]
"Cc1ccc(C(=O)Nc2ccc(CN3CCN(C)CC3)c(C(F)(F)F)c2)cc1C#Cc1cnc2c(Nc3cnn(C)c3)cccn12 [Example 1, 4-methyl-3-((8-((1-methyl-1H-pyrazol-4-yl)amino)imidazo[1,2-a]pyridin-3-yl)ethynyl)-N-(4-((4-methylpiperazin-1-yl)methyl)-3-(trifluoromethyl)phenyl)benzamide]",47,2,64,1,89,58
"Cc1cn(-c2cc(NC(=O)c3ccc(C)c(C#Cc4cnc5c(Nc6cnn(C)c6)cccn45)c3)cc(C(F)(F)F)c2)cn1 [Example 12, 4-methyl-N-(3-(4-methyl-1H-imidazol-1-yl)-5-(trifluoromethyl)phenyl)-3-((8-((1-methyl-1H-pyrazol-4-yl)amino)imidazo[1,2-a]pyridin-3-yl)ethynyl)benzamide]",95,11,86,98,95,100
Cc1ccc(NC(=O)C2(C(=O)Nc3ccc(F)cc3)CC2)cc1C#Cc1cnc2c(Nc3cnn(C(C)C)c3)cccn12 [Example 78],93,100,96,100,100,100
